# Measurements published in US9839639B2, “Neprilysin inhibitors” (THERAVANCE BIOPHARMA R&D IP, LLC, priority 2014, dated 2017).
# Experiments:
# human NEP = target: T1, human NEP (Homo sapiens, UniProt P08473); assay: In vitro enzyme inhibition assay, inhibitor potency at human NEP; assay type: biochemical; settings: recombinant human NEP, fluorogenic peptide substrate 10 μM, 37° C.; values given as ranges
# T1 construct: purchased R&D Systems, Minneapolis, Minn; 1182-ZN
# Method: The inhibitory activities of compounds at human and rat neprilysin (EC 3.4.24.11; NEP) and human angiotensin converting enzyme (ACE) were determined using in vitro assays as described below.
# Recombinant human NEP and recombinant human ACE were obtained commercially (R&D Systems, Minneapolis, Minn., catalog numbers 1182-ZN and 929-ZN, respectively). The fluorogenic peptide substrate Mca-D-Arg-Arg-Leu-Dap-(Dnp)-OH (Medeiros et al. (1997) Braz. J. Med. Biol. Res. 30:1157-62; Anaspec, San Jose, Calif.) and Abz-Phe-Arg-Lys(Dnp)-Pro-OH (Araujo et al. (2000) Biochemistry 39:8519-8525; Bachem, Torrance, Calif.) were used in the NEP and ACE assays respectively.
# The assays were performed in 384-well white opaque plates at 37° C. using the fluorogenic peptide substrates at a concentration of 10 μM in Assay Buffer (NEP: 50 mM HEPES, pH 7.5, 100 mM NaCl, 0.01% polyethylene glycol sorbitan monolaurate (Tween-20), 10 μM ZnSO4; ACE: 50 mM HEPES, pH 7.5, 100 mM NaCl, 0.01% Tween-20, 1 μM ZnSO4).
# Test compounds were assayed over the range of concentrations from 10 μM to 20 pM. Test compounds were added to the enzymes and incubated for 30 minute at 37° C. prior to initiating the reaction by the addition of substrate. Reactions were terminated after 20 minutes of incubation at 37° C. by the addition of glacial acetic acid to a final concentration of 3.6% (v/v).
# Plates were read on a fluorometer with excitation and emission wavelengths set to 320 nm and 405 nm, respectively. Inhibition constants were obtained by nonlinear regression of the data using the equation (GraphPad Software, Inc., San Diego, Calif.): v=v0/[1+(I/K′)] where v is the reaction rate, v0 is the uninhibited reaction rate, I is the inhibitor concentration and K′ is the apparent inhibition constant.
# Compounds of the invention were tested in this assay and found to have pKi values at human NEP as follows.
# [1] = Rat PO cassette assay (oral bioavailability); assay type: in vivo; settings: plasma, male Sprague-Dawley rats, single oral gavage vs intravenous dose, 0.5 mg/kg, read-out: % F (oral bioavailability)
# Description: Oral bioavailability, or % F, is a measure of the percentage of a drug in an oral dose that actually reaches the systemic circulation. Compound losses can occur due to incomplete formulation dissolution, incomplete absorption due to compound insolubility or instability along the GI, or metabolism in the gut or across the gut wall. The fraction of the dose which reaches the hepatic portal vein must also then pass through the liver before reaching the systemic circulation. Compound metabolism, or “first-pass extraction,” can occur during this initial passage through the liver, and this is an additional potential source of compound loss. Oral bioavailability is calculated as the dose-normalized ratio of drug exposure after an oral dose to that after an intravenous dose, wherein the entire dose is delivered directly to the systemic circulation.
# Each cassette study begins with 10 mM DMSO stock solutions of up to 5 different compounds. Typically, compounds are selected such no two compounds dosed in the same cassette have a molecular weight within 5 Da of each other. This simplifies subsequent bioanalysis. Appropriate volumes of each DMSO stock are added into a volume of vehicle (5% sodium bicarbonate, 5% dextrose in H2O) such that the final concentration of each compound is 0.25 mg/mL. Intravenous dosing solutions are sterile-filtered (0.2 μm) prior to dosing.
# Pre-cannulated male Sprague-Dawley rats (3 per cassette per route) between 8 and 10 weeks of age were obtained from Harlan Laboratories (Indianapolis, Ind.). Rats received either a single oral gavage or a single intravenous (via lateral tail vein) dose (2 mL/kg) of the dosing solution. The final dose was 0.5 mg/kg. Serial blood samples were harvested via jugular vein cannula at 3 minutes, 15 minutes, 30 minutes, 1 hours, 2 hours, 4 hours, 6 hours, and 24 hours post-dose. Sampling was performed either manually or using automated blood samplers. Samples were collected into microtainer tubes containing EDTA as the anticoagulant and are processed to plasma by refrigerated centrifugation.
# Plasma samples were extracted with 3 volumes of MeCN containing a suitable internal standard. Extracts were reconstituted into 3 volumes of water containing 1% formic acid, and analyzed via HPLC-coupled MS/MS. Plasma concentration-time data were analyzed using the Phoenix software (Pharsight Corp., St. Louis, Mo.) to calculate pharmacokinetic parameters.
# Compounds of the invention of particular interest were those having a % F>10%, when tested in this assay.
# T1 sequence (P08473 52-750 limits assumed): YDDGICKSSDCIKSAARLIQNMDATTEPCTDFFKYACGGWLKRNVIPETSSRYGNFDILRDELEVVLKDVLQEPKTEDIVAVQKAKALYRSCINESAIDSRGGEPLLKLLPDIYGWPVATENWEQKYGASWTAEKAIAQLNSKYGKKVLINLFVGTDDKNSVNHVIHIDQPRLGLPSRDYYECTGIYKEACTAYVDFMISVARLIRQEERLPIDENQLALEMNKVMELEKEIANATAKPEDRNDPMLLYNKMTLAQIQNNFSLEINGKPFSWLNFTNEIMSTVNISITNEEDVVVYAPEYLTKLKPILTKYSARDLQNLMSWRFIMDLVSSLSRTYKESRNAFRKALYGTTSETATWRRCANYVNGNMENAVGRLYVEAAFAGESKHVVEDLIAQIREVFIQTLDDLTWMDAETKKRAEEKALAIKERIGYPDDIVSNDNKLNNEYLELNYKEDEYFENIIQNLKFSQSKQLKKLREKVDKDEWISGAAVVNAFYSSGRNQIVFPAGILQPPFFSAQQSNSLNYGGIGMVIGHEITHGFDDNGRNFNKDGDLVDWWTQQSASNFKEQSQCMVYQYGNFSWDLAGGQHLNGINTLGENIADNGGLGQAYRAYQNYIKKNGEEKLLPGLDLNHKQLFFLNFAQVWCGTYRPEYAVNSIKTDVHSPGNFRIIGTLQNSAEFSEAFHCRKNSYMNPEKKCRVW
Ki (human NEP),bioavailability [1],Structure (SMILES)
1.26 to 3.16 nM,> 10%,"CCOC[C@](C)(C[C@@H](Cc1ccc(-c2cc(Cl)ccc2F)cc1)NC(=O)c1n[nH]nc1C)C(=O)O [Example 11-4, (2S,4R)-5-(5′-Chloro-2′-fluorobiphenyl-4-yl)-2-ethoxymethyl-2-methyl-4-[(5-methyl-2H-[1,2,3]triazole-4-carbonyl)amino]pentanoic acid]"
≤ 1 nM,> 10%,"O=C(N[C@H](Cc1ccc(-c2cc(Cl)ccc2F)cc1)CC1(C(=O)O)CCOC1)c1cnn[nH]1 (single isomer, unassigned) [Example 20a]"
≤ 1 nM,> 10%,"CCCC(CO)(C[C@@H](Cc1ccc(-c2cc(Cl)ccc2F)cc1)NC(=O)c1cnn[nH]1)C(=O)O (single isomer, unassigned) [Example 15a]"
≤ 1 nM,> 10%,"CCOC[C@](C)(C[C@@H](Cc1ccc(-c2cccc(Cl)c2)cc1)NC(=O)c1noc(=O)[nH]1)C(=O)O [Example 9, (2S,4R)-5-(3′-Chlorobiphenyl-4-yl)-2-ethoxymethyl-2-methyl-4-[(5-oxo-4,5-dihydro-[1,2,4]oxadiazole-3-carbonyl)amino]pentanoic Acid]"
≤ 1 nM,> 10%,"CCC(CO)(C[C@@H](Cc1ccc(-c2cc(Cl)ccc2F)cc1)NC(=O)c1cnn[nH]1)C(=O)O (single isomer, unassigned) [Example 14a]"
≤ 1 nM,–,"CCOn1cc(C(=O)N[C@H](Cc2ccc(-c3cc(Cl)ccc3F)cc2)C[C@@](C)(COC)C(=O)O)nn1 [Example 8-8, (2S,4R)-5-(5′-Chloro-2′-fluorobiphenyl-4-yl)-4-[(1-ethoxy-1H-[1,2,3]triazole-4-carbonyl)amino]-2-methoxymethyl-2-methylpentanoic acid]"
≤ 1 nM,–,"CCOC[C@](C)(C[C@@H](Cc1ccc(-c2cc(Cl)ccc2F)cc1)NC(=O)c1ccc(Cl)cn1)C(=O)O [Example 11-2, (2S,4R)-5-(5′-Chloro-2′-fluorobiphenyl-4-yl)-4-[(5-chloropyridine-2-carbonyl)amino]-2-ethoxymethyl-2-methylpentanoic acid]"
1.26 to 3.16 nM,–,"CCOC[C@](C)(C[C@@H](Cc1ccc(-c2cc(Cl)ccc2F)cc1)NC(=O)c1ncccn1)C(=O)O [Example 11-3, (2S,4R)-5-(5′-Chloro-2′-fluorobiphenyl-4-yl)-2-ethoxymethyl-2-methyl-4-[(pyrimidine-2-carbonyl)amino]pentanoic acid]"
1.26 to 3.16 nM,–,"Cc1cnc(C(=O)N[C@H](Cc2ccc(-c3cc(Cl)ccc3F)cc2)C[C@@](C)(CN)C(=O)O)o1 [Example 4-2, (2S,4R)-2-Aminomethyl-5-(5′-chloro-2′-fluorobiphenyl-4-yl)-2-methyl-4-[(5-methyl-oxazole-2-carbonyl)amino]pentanoic acid]"
1.26 to 3.16 nM,–,"CCOC[C@](C)(C[C@@H](Cc1ccc(-c2cc(Cl)ccc2F)cc1)NC(=O)c1ncco1)C(=O)O [Example 11-1, (2S,4R)-5-(5′-Chloro-2′-fluorobiphenyl-4-yl)-2-ethoxymethyl-2-methyl-4-[(oxazole-2-carbonyl)amino]pentanoic acid]"
